# In patent US6399654B1, “Biflavanoids and derivatives thereof as antiviral agents” (priority 1995, dated 2002):
# pEC50, pIC50: −log10 of the molar value. Where two headings read alike, the source gives them in different places. Marks after values point to notes of the source that are not given here.
# Columns and labels:
# [1] = Cytotoxicity in uninfected PHA-stimulated human PBM cells; conditions: human
# [2] = test system: Adenovirus Type 5; assay: microbe, parasite or virus in culture; type: cell-based; conditions: Human mastadenovirus C, A549, read-out: CPE Inhibition EC50
# [3] = test system: Hepatitis B Virus (HBV); assay: HBV replication intermediates (RI, intracellular HBV DNA) in 2.2.15 cells; type: cell-based
# Protocol: Test compounds were added daily for a nine continuous day period; the culture medium was collected and stored for analysis of extracellular (virion) HBV DNA after 0, 3, 6, and 9 days of treatment. The treated cells were lysed 24 hours following day 9 of treatment for the analysis of intracellular HBV genomic forms. The overall levels of HBV DNA (both extracellular and intracellular DNA) and the relative rate of HBV replication (intracellular DNA) were analyzed quantitatively. The analysis was performed using blot hybridization techniques and [^32P]-labeled HBV-specific probes. The HBV DNA levels were measured by comparison to known amounts of HBV DNA standards applied to every nitrocellulose membrane (gel or slot blot). An AMBIS beta scanner, which measures the radioactive decay of the hybridized probes directly from the nitrocellulose membranes, was used for the quantitative analysis. Standard curves, generated by multiple analyses, were used to correlate CPM measurements made by the beta scanner with relative levels of target HBV DNA. The levels of HBV virion DNA released into the culture medium were analyzed by a slot blot hybridization procedure. HBV DNA levels were then compared to those at day 0 to determine the effect of the test compound. A known positive drug was evaluated in parallel with test compounds in each test.
# [4] = test system: HSV-1; assay: HSV-1 CPE inhibition in HFF cells; conditions: for HSV-1 SI (CC50/EC50): HFF Cells
# [5] = test system: HCMV; assay: HCMV CPE inhibition in HFF cells
# [6] = test system: Measles Virus; assay: microbe, parasite or virus in culture; type: cell-based; conditions: Measles morbillivirus, BSC-1; Measles Virus; read-out: CPI Inhibition EC50
# [7] = Cytotoxicity by neutral red dye uptake, MA-104 cells; conditions: African green monkey, Neutral Red IC50 (cytotoxic)
# [8] = test system: HIV-1 (strain LAV-1); assay: microbe, parasite or virus in culture; type: cell-based
# [9] = test system: Influenza A (H3N2) Beijing/32/92; assay: microbe, parasite or virus in culture; type: cell-based, influenza A virus; conditions: Influenza A virus, MDCK; Influenza A (H3N2) Beijing/32/92; read-out: CPE Inhibition EC50
# [10] = test system: 2.2.15 cells; assay: HBV cytotoxicity assay, neutral red dye uptake in 2.2.15 cells; type: cell-based; conditions: Homo sapiens, read-out: IC50 (toxicity, neutral red dye uptake)
# Protocol: The toxicity of the test compounds in cultures of 2.2.15 cells, grown to confluence in 96-well flat-bottomed tissue culture plates and treated with compounds as described above, were assayed at four concentrations each in triplicate cultures, in 3 to 10-fold steps. Untreated control cultures were maintained on each plate. On each plate, wells containing no cells were used to correct for light scattering.
# Stock solutions of text drugs were prepared in DMSO.
# [11] = test system: Influenza A (A/NWS/33 (H1N1)); assay: Influenza A virus infection in mice; type: in vivo, BALB/c mice
# Protocol: Animals: Female 13-15 g specific pathogen-free BALB/c mice were obtained form Simonsen Laboratories (Gilroy, Calif.). They were quarantined 24 h prior to use, and maintained on Wayne Lab Blox and tap water. After being infected, their drinking water contained 0.006% oxytetracycline (Pfizer, New York, N.Y.) to control possible secondary bacterial infections.
# Virus: A/NWS/33 (H1N1) was obtained from K. W. Cochran, Univ. of Michigan (Ann Arbor, Mich.). A virus pool was prepared in MDCK cells; this was titrated in mice, ampuled, and stored at −80° C. until used.
# Compounds: Robustaflavone was stored at room temperature until used. Ribavirin, used as a positive control, was obtained from ICN Pharmaceuticals (Costa Mesa, Calif.). Vehicles considered included DMSO (Sigma Chemical Co., St. Louis, Mo.), DMF (Sigma), PEG M. W. 200 (Aldrich Chemical Co. Milwaukee, Wis.), 0.4% CMC (Sigma) and 1-methyl-2-pyrrolidinone (MPD, Aldrich).
# Arterial Oxygen Saturation (SaO2) Determinations: SaO2 was determined using the Ohmeda Blox 3740 pulse oximeter (Ohmeda, Louisville, Ohio)). The ear probe attachment was used, the probe placed on the thigh of the animal, with the slow instrument mode selected. Readings were made after a 30 second stabilization time on each animal. Use of this device for measuring effects of influenza virus on arterial oxygen saturation have been described.^72
# Lung Virus Determinations: Each mouse lung was homogenized and varying dilutions assayed in triplicate for infectious virus in MDCK cells as described previously.^73
# 4. Effect of robustaflavone in CMC or in DMSO on influenza virus infection in mice. In the study with CMC, robustaflavone was used in dosages of 200 and 100 mg/kg/day; using DMSO vehicle, the dosages were 75 and 37.5 mg/kg/day, with the compound administered i.p. twice daily for 5 days beginning 4 h pre-virus exposure. The mice were used in each dose to monitor effects on SaO2 and death; from an additional group of similarly infected and treated mice, 3 animals were killed on days 3, 5, 7 and 9 to assay for lung score (0=normal, 4=maximal consolidation), weight, and virus titer. Three to four mice were used as toxicity controls, which were weighed prior to treatment and again 18 h after treatment termination, and deaths noted daily. […] Three sets of virus controls were used: Infected-untreated, infected-treated with CMC only, and infected-treated with DMSO only. Twenty animals were used in each of these control groups to monitor SaO2 and death, with 3 additional mice taken in parallel with treated animals to determine effects on lung consolidation and virus titer. Two sets of normal controls were used; one group of three mice was weighed and held in parallel with the toxicity controls. From the second group three mice were killed on days 3 and 9 for comparison of lung score and weight.
# Statistical Evaluation: Increase in survivor number was evaluated using chi square analysis with Yates' correction. Mean survival time increases, virus titer and SaO2 value differences were analyzed by t-test. Lung consolidation scores were evaluated by ranked sum analysis.
# [12] = test system: Influenza A (H1N1) Texas/36/91; assay: microbe, parasite or virus in culture; type: cell-based, influenza A virus; conditions: Influenza A virus, MDCK; Influenza A (H1N1) Texas/36/91; read-out: CPE Inhibition EC50
# [13] = test system: Adenovirus Type 5; assay: Adenovirus type 5 neutral red dye uptake in A549 cells; type: cell-based; conditions: Human mastadenovirus C, A549; Adenovirus Type 5; read-out: Neutral Red EC50
# [14] = in vitro; conditions: African green monkey
# [15] = test system: HFF Cells; assay: Cytotoxicity (CC50) in HFF cells in the herpes virus tests; conditions: HFF Cells; for HSV-2 CPE Inhibition CC50: HSV-2 test
# [16] = as above; conditions: human
# [17] = robustaflavone in 0.4% CMC, 200 mg/kg/day i.p. bid × 5
# [18] = robustaflavone in 0.4% CMC, 1005 mg/kg/day (so in the source) i.p. bid × 5
# [19] = robustaflavone in DMSO, 37.5 mg/kg/day i.p. bid × 5
# [20] = robustaflavone in DMSO, 75 mg/kg/day i.p. bid × 5
smiles,measurement,setting,value
"O=c1cc(-c2ccc(O)c(-c3c(O)cc4oc(-c5ccc(O)cc5)cc(=O)c4c3O)c2)oc2cc(O)cc(O)c12 [Robustaflavone (3), robustaflavone]",pIC50,[1],4.11
same,EC50,[2],> 100 µg/mL
same,pEC50,"[3]; Hepatitis B virus, read-out: EC50, HBV replication intermediates (RI) (intracellular DNA)",6.22
same,pEC50,"[3]; Hepatitis B virus, read-out: EC50, second value in parentheses",6.22
same,EC90,"[3]; Hepatitis B virus, Table 2, value in parentheses, not explained, read-out: EC90, second value in parentheses",5.6 µM
same,"SI (CC50/EC90), second value in parentheses","[3]; Table 2, value in parentheses, not explained",60
same,HSV-1 SI (CC50/EC50),[4]; listed as Robustaflavone(3),>11.6
same,HSV-1 SI (CC50/EC50),[4]; listed as robustaflavone (3),> 11.6
same,EC50,"[4]; Human alphaherpesvirus 1, HFF, read-out: HSV-1 CPE Inhibition EC50",8.6 µg/mL
same,HCMV SI (CC50/EC50),[5]; HFF Cells,>1.8
same,EC50,"[5]; Human betaherpesvirus 5, HFF, read-out: HCMV CPE Inhibition EC50",54.8 µg/mL
same,EC50,[6],< 14 µg/mL
same,IC50,[7]; Parainfluenza Type 3 Virus test,79 µg/mL
same,IC50,[7]; Respiratory Syncytial Virus test,~100 µg/mL
same,anti-HIV-1 activity in PBM cells (in words),[8],inactive
same,pEC50,"[8]; Human immunodeficiency virus 1, PBMC, human PBM cells infected with HIV-1 (strain LAV), read-out: Ant-HIV-1 in PBM cells EC50",< 4.00
same,Selective Index (SI),[8]; PBM cells,<1
same,EC50,[9],1.9 µg/mL
same,pIC50,[10],3.47
same,"Infected, Treated MST",[11]; [17],11.1 days
same,"Infected, Treated Mean SaO2",[11]; [17],84.6%
same,"Infected, Treated Surv/Total",[11]; [17],0/9
same,"Infected, Treated MST",[11]; [18],9.8 days
same,"Infected, Treated Mean SaO2",[11]; [18],85.1** %
same,"Infected, Treated Surv/Total",[11]; [18],0/10
same,"Infected, Treated MST",[11]; [19],8.0 days
same,"Infected, Treated Mean SaO2",[11]; [19],73.8%
same,"Infected, Treated Surv/Total",[11]; [19],0/10
same,"Infected, Treated MST (mean survival time)",[11]; [20],3.2 days
same,"Infected, Treated Mean SaO2 (mean of days 3-10)",[11]; [20],70.6%
same,"Infected, Treated Surv/Total","[11]; robustaflavone in DMSO, 75 mg/kg/day i.p. bid × 5 beg −4 h pre-virus",0/9
same,EC50,[12],1.9 µg/mL
same,EC50,[13],> 100 µg/mL
same,IC50,[14],< 14 µg/mL
same,HSV-1 CPE Inhibition CC50,[15]; HSV-1 test,>100 µg/mL
same,HSV-2 CPE Inhibition CC50,[15]; listed as Robustaflavone(3),>100 µg/mL
same,HSV-2 CPE Inhibition CC50,[15]; listed as robustaflavone (3),> 100 µg/mL
same,CC50 at 3 days,[16],> 100 µg/mL
same,CC50 at 14 days,[16],> 100 µg/mL
